Test results as given in patent US6737383B1, “Herbicidal oxadiazolidines” (priority 1999, dated 2004).

What was measured:
[1] = tested on: sugar beet; assay: Test B pre/postemergence sugar beet; format: in vivo, Beta vulgaris
Procedure, shortened: (§1)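 Test chemicals in a non-phytotoxic solvent mixture with surfactant were sprayed preemergence onto planted seeds and postemergence onto plants 2 to 18 cm tall (1- to 4-leaf stage). After twelve to sixteen days in a greenhouse, injury was visually rated against untreated controls from 0 (no effect) to 10 (complete control).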

[2] = tested on: cocklebur; assay: Test B pre/postemergence cocklebur; format: in vivo, Xanthium strumarium
Procedure, shortened: as §1

[3] = tested on: wild oat; assay: Test E wild oat; format: in vivo, Avena fatua; settings: Preemergence
[4] = tested on: Italian ryegrass; assay: Test E Italian ryegrass; format: in vivo, Lolium multiflorum; settings: Preemergence
[5] = tested on: bamyardgrass; assay: Test B flood test barnyardgrass; format: in vivo, Echinochloa crus-galli
Procedure, shortened: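 Flood test on plants grown to the 2-leaf stage; treated plants kept in greenhouse twelve to sixteen days, then visually rated against controls on a 0 (no effect) to 10 (complete control) scale.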

[6] = tested on: green foxtail; assay: Test E green foxtail; format: in vivo, Setaria viridis; settings: Preemergence
[7] = tested on: blackgrass; assay: Test E blackgrass; format: in vivo, Alopecurus myosuroides; settings: Preemergence
[8] = tested on: winter wheat; assay: Test E winter wheat; format: in vivo, Triticum aestivum; settings: Postemergence, 0 to 100 scale
Procedure, shortened: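 Greenhouse test: compounds in non-phytotoxic solvent with surfactant; for postemergence, sprayed on plants at 1- to 4-leaf stage grown in 60:40 sandy loam/potting mix. Injury rated visually against untreated controls after about 21 to 28 days.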

[9] = tested on: rape; assay: Test B pre/postemergence rape; format: in vivo, Brassica napus
Procedure, shortened: as §1

[10] = tested on: winter barley; assay: Test E winter barley; format: in vivo, Hordeum vulgare; settings: Preemergence
[11] = tested on: winter wheat; assay: Test E winter wheat; format: in vivo, Triticum aestivum; settings: Preemergence
[12] = Preemergence, Rate 62 g/ha, scale of 0 to 10 where 0 is no effect and 10 is complete control
[13] = Preemergence, Rate 250 g/ha, scale of 0 to 10 where 0 is no effect and 10 is complete control
[14] = Preemergence, Rate 500 g/ha, scale of 0 to 10 where 0 is no effect and 10 is complete control
[15] = Rate 62 g/ha, Postemergence, scale 0 to 10 (0 no effect, 10 complete control)
[16] = Rate 125 g/ha, Postemergence, scale of 0 to 10 where 0 is no effect and 10 is complete control
[17] = Rate 250 g/ha, Postemergence, scale of 0 to 10 where 0 is no effect and 10 is complete control
[18] = Rate 500 g/ha, Postemergence, scale 0 to 10, 0 no effect, 10 complete control
[19] = Rate 62 g/ha, 0 to 100 scale, 0 no effect, 100 complete control
[20] = Rate 125 g/ha, 0 to 100 scale (0 no effect, 100 complete control)
[21] = Pre-emergence, Rate 1000 g/ha, scale 0 to 10 (0 no effect, 10 complete control)
[22] = Rate 125 g/ha, Pre-emergence, flood test species, scale 0 to 10 where 0 is no effect and 10 is complete control
[23] = Rate 250 g/ha, Pre-emergence, flood-test species, scale 0 to 10, 0 is no effect, 10 is complete control
[24] = Rate 500 g/ha, Pre-emergence, flood test species, scale 0 to 10 (0 no effect, 10 complete control)
[25] = Rate 125 g/ha, 0 is no effect, 100 is complete control
[26] = Rate 250 g/ha, 0 is no effect, 100 is complete control
[27] = Rate 250 g/ha, 0 to 100 scale, 0 no effect, 100 complete control
[28] = Rate 500 g/ha, 0 to 100 scale (0 no effect, 100 complete control)

SMILES: CC(C)N(C(=O)n1oc(=O)n(C2CCOCC2)c1=O)c1ccc(F)cc1 [Compound 310]
- Sugarbeets plant response rating [1, 12]: 5
- Sugarbeets plant response rating (0 to 10 scale) ([1]; Preemergence, Rate 125 g/ha): 7
- Sugarbeets plant response rating [1, 13]: 10
- Sugarbeets plant response rating [1, 14]: 10
- Sugarbeets plant response rating [1, 15]: 0
- Sugarbeets plant response rating [1, 16]: 0
- Plant response rating, Sugarbeets [1, 17]: 2
- Cocklebur plant response rating [2, 12]: 0
- Cocklebur plant response rating (0 to 10 scale) ([2]; Preemergence, Rate 125 g/ha): 0
- Cocklebur plant response rating [2, 13]: 2
- Cocklebur plant response rating [2, 14]: 4
- Cocklebur plant response rating [2, 15]: 0
- Cocklebur plant response rating [2, 16]: 0
- Plant response rating, Cocklebur [2, 17]: 2
- Cocklebur plant response rating [2, 18]: 7
- Plant response rating, Wild oat [3, 19]: 70
- Plant response rating, Wild oat [3, 20]: 50
- Plant response rating, Wild oat ([3]; Rate 250 g/ha, 0 to 100 scale): 70
- Plant response rating, I. Ryegrass [4, 19]: 70
- Plant response rating, I. Ryegrass [4, 20]: 70
- Plant response rating, I. Ryegrass ([4]; Rate 250 g/ha, 0 to 100 scale): 70
- Barnyardgrass plant response rating [5, 21]: 6
- Barnyardgrass plant response rating ([5]; Rate 62 g/ha, headed Pre-emergence (flood test species), scale 0 to 10 (0 no effect, 10 complete control)): 0
- Barnyardgrass plant response rating [5, 22]: 0
- Barnyardgrass plant response rating [5, 23]: 4
- Barnyardgrass plant response rating [5, 24]: 7
- Plant response rating, Green foxtail [6, 19]: 100
- Plant response rating, Green foxtail [6, 20]: 100
- Plant response rating, Green foxtail ([6]; Rate 250 g/ha, 0 to 100 scale): 100
- Plant response rating, Blackgrass [7, 19]: 85
- Plant response rating, Blackgrass [7, 20]: 85
- Plant response rating, Blackgrass ([7]; Rate 250 g/ha, 0 to 100 scale): 85
- Plant response rating, Wheat (winter) ([8]; Rate 62 g/ha): 75
- Plant response rating, Wheat (winter) [8, 25]: 80
- Plant response rating, Wheat (winter) [8, 26]: 80
- Rape plant response rating [9, 12]: 5
- Rape plant response rating (0 to 10 scale) ([9]; Preemergence, Rate 125 g/ha): 6
- Rape plant response rating [9, 13]: 10
- Rape plant response rating [9, 14]: 10
- Rape plant response rating [9, 15]: 0
- Rape plant response rating [9, 16]: 0
- Plant response rating, Rape [9, 17]: 0
- Plant response rating, Barley (winter) [10, 19]: 50
- Plant response rating, Barley (winter) [10, 20]: 60
- Plant response rating, Barley (winter) [10, 27]: 70
- Plant response rating, Wheat (winter) [11, 19]: 60
- Plant response rating, Wheat (winter) [11, 20]: 40
- Plant response rating, Wheat (winter) ([11]; Rate 250 g/ha, 0 to 100 scale): 70

SMILES: COC(Cn1c(=O)on(C(=O)N(c2ccc(F)cc2)C(C)C)c1=O)OC [Compound 317]
- Sugarbeets plant response rating [1, 12]: 1
- Sugarbeets plant response rating (0 to 10 scale) ([1]; Preemergence, Rate 125 g/ha): 4
- Sugarbeets plant response rating [1, 13]: 7
- Sugarbeets plant response rating [1, 14]: 8
- Sugarbeets plant response rating [1, 15]: 0
- Sugarbeets plant response rating [1, 16]: 0
- Plant response rating, Sugarbeets [1, 17]: 1
- Cocklebur plant response rating (0 to 10 scale) ([2]; Preemergence, Rate 125 g/ha): 0
- Cocklebur plant response rating [2, 14]: 0
- Cocklebur plant response rating [2, 15]: 0
- Cocklebur plant response rating [2, 16]: 0
- Plant response rating, Cocklebur [2, 17]: 0
- Cocklebur plant response rating [2, 18]: 1
- Plant response rating, Wild oat [3, 20]: 60
- Plant response rating, Wild oat ([3]; Rate 250 g/ha, 0 to 100 scale): 60
- Plant response rating, Wild oat [3, 28]: 70
- Plant response rating, I. Ryegrass [4, 20]: 60
- Plant response rating, I. Ryegrass ([4]; Rate 250 g/ha, 0 to 100 scale): 85
- Plant response rating, I. Ryegrass [4, 28]: 95
- Barnyardgrass plant response rating [5, 21]: 0
- Barnyardgrass plant response rating [5, 22]: 0
- Barnyardgrass plant response rating [5, 23]: 0
- Barnyardgrass plant response rating [5, 24]: 0
- Plant response rating, Green foxtail [6, 20]: 100
- Plant response rating, Green foxtail ([6]; Rate 250 g/ha, 0 to 100 scale): 100
- Plant response rating, Green foxtail [6, 28]: 100
- Plant response rating, Blackgrass [7, 20]: 50
- Plant response rating, Blackgrass ([7]; Rate 250 g/ha, 0 to 100 scale): 100
- Plant response rating, Blackgrass [7, 28]: 60
- Plant response rating, Wheat (winter) [8, 25]: 70
- Plant response rating, Wheat (winter) [8, 26]: 95
- Plant response rating, Wheat (winter) ([8]; Rate 500 g/ha, 0 is no effect, 100 is complete control): 95
- Rape plant response rating [9, 12]: 0
- Rape plant response rating (0 to 10 scale) ([9]; Preemergence, Rate 125 g/ha): 2
- Rape plant response rating [9, 13]: 8
- Rape plant response rating [9, 14]: 10
- Rape plant response rating [9, 15]: 0
- Rape plant response rating [9, 16]: 0
- Plant response rating, Rape [9, 17]: 1
- Plant response rating, Barley (winter) [10, 20]: 40
- Plant response rating, Barley (winter) [10, 27]: 50
- Plant response rating, Barley (winter) [10, 28]: 70
- Plant response rating, Wheat (winter) [11, 20]: 50
- Plant response rating, Wheat (winter) ([11]; Rate 250 g/ha, 0 to 100 scale): 50
- Plant response rating, Wheat (winter) [11, 28]: 60
